In general, MIC90 refers to an inhibitory concentration at the 90% level, which refers to growth in some studies and to a panel of isolates in others. A word on the IC50: it is the point on the concentration scale where inhibition reaches its midpoint. Usually MIC stands for the lowest concentration found to suppress growth.

Each structure is given as a SMILES string. Converted amounts (≈) assume the structure as drawn. The source made the active and inactive calls. The rule behind the calls is not given here. Where only a bound is given, the exact number is not on record here.

Experimental findings from ChEMBL document CHEMBL3751774, “Synthesis and anti-tubercular activity of conformationally-constrained and bisquinoline analogs of TMC207” (Medchemcomm, 2015) are described below.

The subject of assay [1] is Mycobacterium tuberculosis. Kind of assay: Antitubercular activity against Mycobacterium tuberculosis H37Rv assessed as growth inhibition by BACTEC assay. Type of assay: functional.
Assay [2] addresses ATP synthase. Kind of assay: Inhibition of Mycobacterium tuberculosis ATP synthase. The assay is classed as protein-complex assay.
Assay [3] has as its system Mycobacterium tuberculosis. Kind of assay: Antitubercular activity against Mycobacterium tuberculosis H37Rv assessed as growth inhibition after 4 weeks. The assay is classed as functional. Particulars: 672 h.
Assay [4] can be described thus: Cytotoxicity against African green monkey Vero C1008 cells assessed as reduction in cell viability after 24 hrs by MTS assay. Type of assay: cell-based. The settings on record: Chlorocebus sabaeus. (Formazan colour is commonly taken as a measure of viable cells.)
The nature of assay [5]: Cytotoxicity against Swiss mouse BMDM assessed as reduction in cell viability after 24 hrs by MTS assay.
Assay [6] has as its system Mycobacterium tuberculosis. Kind of assay: Antitubercular activity against Mycobacterium tuberculosis H37Rv infected in Swiss mouse assessed as mean survival time at 50 mg/kg, po 6 days/week for 28 days (reference value: 27.8 days). Type of assay: functional.
The test system of assay [7] is Mycobacterium tuberculosis. Kind of assay: Antitubercular activity against Mycobacterium tuberculosis H37Rv infected in human blood monocyte derived macrophages assessed as reduction in colony forming units at 4 times MIC incubated for 4 days measured after 4 weeks. Type of assay: functional, organism-based.
Assay [8] deals with Mycobacterium tuberculosis. In words: Antitubercular activity against Mycobacterium tuberculosis H37Rv infected in mouse BMDM assessed as reduction in colony forming units at 4 times MIC incubated for 4 days measured after 4 weeks relative to control. Type of assay: functional. Set-up: scale not given: the % may be the effect or the level left.
Assay [9] relates to Mycobacterium tuberculosis. Kind of assay: Antitubercular activity against Mycobacterium tuberculosis H37Rv infected in Swiss mouse assessed as reduction in colony forming units in lungs at 50 mg/kg, po 6 days/week for 28 days measured after 3 to 4 weeks relative to control. Type of assay: functional.
Assay [10] has as its system Mycobacterium tuberculosis. Kind of assay: Antitubercular activity against Mycobacterium tuberculosis H37Rv infected in Swiss mouse assessed as reduction in colony forming units in lungs at 100 mg/kg, po 6 days/week for 28 days measured after 3 to 4 weeks relative to control. The assay is classed as functional.
Assay [11] relates to Mycobacterium tuberculosis. Kind of assay: Antitubercular activity against Mycobacterium tuberculosis H37Rv infected in Swiss mouse assessed as mean survival time at 100 mg/kg, po 6 days/week for 28 days (reference value: 27.8 days). The assay is classed as functional.
The subject of assay [12] is Mycobacterium tuberculosis. In words: Antitubercular activity against Mycobacterium tuberculosis H37Rv infected in Swiss mouse assessed as reduction in colony forming units in lungs at 100 mg/kg, po for 28 days measured after 3 to 4 weeks relative to control. Type of assay: functional.
Assay [13] has as its system Mycobacterium tuberculosis. Kind of assay: Antitubercular activity against Mycobacterium tuberculosis H37Rv infected in Swiss mouse assessed as mean survival time at 100 mg/kg, po for 28 days (reference value: 27.8 days). Type of assay: functional.
The test system of assay [14] is Mycobacterium tuberculosis. Kind of assay: Antitubercular activity against Mycobacterium tuberculosis H37Rv infected in Swiss mouse assessed as reduction in colony forming units in lungs at 25 mg/kg, po for 28 days measured after 3 to 4 weeks relative to control. Type of assay: functional.
Assay [15] concerns Mycobacterium tuberculosis. In words: Antitubercular activity against Mycobacterium tuberculosis H37Rv infected in Swiss mouse assessed as mean survival time at 25 mg/kg, po for 28 days (reference value: 27.8 days). The assay is classed as functional.

Consider `COc1nc2ccc(Br)cc2cc1[C@H](c1ccccc1)[C@@]1(O)c2ccccc2C[C@@H]1CN(C)C` (racemic), for which the MIC90 in [1] turned out to be 12.1 µM (≈ 6.26 µg/mL).

On to `C=CCOc1nc2ccccc2cc1C(c1cc2ccccc2nc1OCC=C)C(O)(CCN(C)C)c1ccccc1` (stereo unspecified), for which half-maximal inhibition in [2] (IC50) was put at 40 nM. Also, the MIC in assay [3] is above 50 µM.

Consider `COc1nc2ccccc2cc1C(c1cc2ccccc2nc1OC)C(O)(CCN(C)C)c1ccc(Br)cc1` (stereo unspecified), for which the IC50 in assay [4] was above 100000 nM; in assay [2], 10 nM; in [5] it was above 100000 nM. Also, in assay [3], the MIC worked out at 0.66 µM (≈ 0.387 µg/mL).

Consider `COc1nc2ccccc2cc1C(c1cc2ccccc2nc1OC)C(O)(CCN(C)C)c1cccc2ccccc12` (stereo unspecified), for which the figures for the IC50 in assay [4], in assay [2] and in assay [5] were above 100000 nM, 1 nM and above 100000 nM, respectively. Further, the MIC in assay [3] came out at 0.7 µM (≈ 0.39 µg/mL).

Take `COc1nc2ccc(Br)cc2cc1[C@@H](c1ccccc1)[C@@]1(O)c2cc(Br)ccc2CC[C@@H]1CN(C)C` (racemic): in assay [1], the MIC90 is above 50 µM.

For the compound `COc1nc2ccc(Br)cc2cc1[C@@H](c1ccccc1)[C@@]1(O)c2ccccc2CC[C@@H]1CN(C)C` (racemic), the MIC90 in [1] was above 50 µM.

On to `COc1nc2ccc(Br)cc2cc1[C@H](c1ccccc1)[C@@]1(O)c2cc(Br)ccc2CC[C@@H]1CN(C)C` (racemic), for which the MIC90 in assay [1] is above 50 µM.

Consider `COc1nc2ccc(Br)cc2cc1[C@@H](c1ccccc1)[C@@]1(O)c2cc(C)ccc2C[C@@H]1CN(C)C` (racemic), for which the MIC90 in assay [1] is above 50 µM.

With `COc1nc2ccc(Br)cc2cc1[C@H](c1ccccc1)[C@@]1(O)c2ccccc2OC[C@@H]1CN(C)C` (racemic), the MIC90 in assay [1] was above 50 µM.

Consider `COc1nc2ccccc2cc1C(c1cc2ccccc2nc1OC)C(O)(CCN(C)C)c1ccccc1` (stereo unspecified), for which the MST was 29 days in assay [6] and 25 days in assay [11]. Besides, the IC50 is above 100000 nM in assay [4], 70 nM in assay [2] and above 100000 nM in assay [5]. The outcome in assay [7] was Active. For the same compound, in assay [8], the Activity is given as 90%. The “fold change (FC)” value in assay [9] is listed as 118; in assay [10] it was 808.22. Besides, the MIC in assay [3] turned out to be 0.39 µM (≈ 0.198 µg/mL).

With `COc1nc2ccc(Br)cc2cc1[C@@H](c1ccccc1)[C@@]1(O)c2ccccc2OC[C@@H]1CN(C)C` (racemic), in [1], the MIC90 was above 50 µM.

Regarding `COc1nc2ccc(Br)cc2cc1[C@@H](c1ccccc1)[C@@]1(O)c2ccc(Br)cc2C[C@@H]1CN(C)C` (racemic), the MIC90 in assay [1] is above 50 µM.

Consider `COc1nc2ccc(Br)cc2cc1[C@H](c1ccccc1)[C@@]1(O)c2cc(Cl)ccc2OCC[C@@H]1CN(C)C` (racemic), for which the MIC90 in [1] is above 50 µM.

As to `COc1nc2ccc(Br)cc2cc1[C@H](c1ccccc1)[C@@]1(O)c2ccc(Br)cc2C[C@@H]1CN(C)C` (racemic), in assay [1], the MIC90 is above 50 µM.

Regarding `CC[C@@H](CO)NCCN[C@@H](CC)CO` [ETHAMBUTOL], in [12], the “fold change (FC)” value turned out to be 26.94. The MST in assay [13] came to 29 days.

With `C=CCOc1nc2ccccc2cc1C(c1cc2ccccc2nc1OCC=C)C(O)(CCN(C)C)c1cccc(Br)c1` (stereo unspecified), the IC50 in assay [2] was determined as 30 nM. In addition, the MIC in [3] is above 50 µM.

The compound `CN(C)CCC(O)(c1cccc(Br)c1)C1c2cc3ccccc3nc2OCC/C=C\CCOc2nc3ccccc3cc21` (stereo unspecified) came in with an IC50 in [2] of 10 nM.

On to `COc1nc2ccc(Br)cc2cc1[C@@H](c1ccccc1)[C@@]1(O)c2ccccc2OCC[C@@H]1CN(C)C` (racemic), for which, in [1], the MIC90 came out at 22.8 µM (≈ 12.5 µg/mL).

With `COc1nc2ccc(Br)cc2cc1[C@@H](c1ccccc1)[C@@]1(O)c2cc(Cl)ccc2OCC[C@@H]1CN(C)C` (racemic), the MIC90 in assay [1] is above 50 µM.

For the compound `C=CCOc1nc2ccccc2cc1C(c1cc2ccccc2nc1OCC=C)C(O)(CCN(C)C)c1ccc(Br)cc1` (stereo unspecified), half-maximal inhibition in assay [2] (IC50) required 280 nM. Further, the MIC in assay [3] was above 50 µM.

Regarding `COc1nc2ccc(Br)cc2cc1[C@@H](c1ccccc1)[C@@]1(O)c2ccccc2C[C@@H]1CN(C)C` (racemic), the MIC90 in [1] came to 48.3 µM (≈ 25 µg/mL).

For the compound `COc1nc2ccccc2cc1C(c1cc2ccccc2nc1OC)C(O)(CCN(C)C)c1cccc(Br)c1` (stereo unspecified), the figures for the IC50 in assay [4], in assay [2] and in assay [5] were above 100000 nM, 50 nM and above 100000 nM, respectively. In [3], the MIC came out at 1.56 µM (≈ 0.915 µg/mL).

Regarding `C=CCCOc1nc2ccccc2cc1C(c1cc2ccccc2nc1OCCC=C)C(O)(CCN(C)C)c1ccc(Br)cc1` (stereo unspecified), the IC50 in assay [4] is above 100000 nM; in assay [2] it was 80 nM; in [5], above 100000 nM. Moreover, the MIC in [3] worked out at 1.56 µM (≈ 1.04 µg/mL).

Take `COc1nc2ccc(Br)cc2cc1[C@H](c1ccccc1)[C@@]1(O)c2ccccc2CC[C@@H]1CN(C)C` (racemic): the MIC90 in assay [1] was above 50 µM.

Take `COc1nc2ccc(Br)cc2cc1[C@H](c1ccccc1)[C@@]1(O)c2cc(C)ccc2C[C@@H]1CN(C)C` (racemic): in [1], the MIC90 was found to be 12.5 µM (≈ 6.64 µg/mL).

`CO[C@H]1/C=C/O[C@@]2(C)Oc3c(C)c(O)c4c(O)c(c(/C=N/N5CCN(C)CC5)c(O)c4c3C2=O)NC(=O)/C(C)=C\C=C\[C@H](C)[C@H](O)[C@@H](C)[C@@H](O)[C@@H](C)[C@H](OC(C)=O)[C@@H]1C` [RIFAMPIN]: in assay [8], the Activity stood at 98%.

On to `NNC(=O)c1ccncc1` [ISONIAZID], for which the “fold change (FC)” value in assay [14] is on record as 257.08. The MST in [15] came out at 29 days. In assay [8], the Activity was 98%.

Turning to `COc1nc2ccc(Br)cc2cc1[C@@H](c1ccccc1)[C@@]1(O)c2ccccc2CCC[C@@H]1CN(C)C` (racemic), the MIC90 in assay [1] was 45.8 µM (≈ 25 µg/mL).

Consider `COc1nc2ccccc2cc1C(c1cc2ccccc2nc1OC)C(O)(CCN(C)C)c1ccc2ccccc2c1` (stereo unspecified), for which the results for the IC50 in assay [4], in [2] and in assay [5] were above 100000 nM, 30 nM and above 100000 nM, respectively. In addition, in [7], the result was Active. Moreover, the Activity in assay [8] was determined as 91%. Besides, the MIC in assay [3] came out at 0.39 µM (≈ 0.218 µg/mL).
